Where a name gives a salt, the structure may show the parent alone.
Key:
[1] = biological target: T1, HiBiT-BRM (Homo sapiens, UniProt P51531); assay: HiBiT-BRM cell-based degradation assay (Nano-Glo HiBiT Lytic Detection); details: HeLa cells expressing HiBiT-BRM, 24 h; for DC50: read-out: BRM HiBit Degradation IC50
T1 construct: expressed in transfected cells
How it was run: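 Luminescence from HiBiT–LgBiT complementation in lysates of a stable HiBiT-BRM HeLa line measured after 24 h compound exposure. Degradation expressed as percent relative to DMSO-treated cells and cells given 2 μM of a known BRM/BRG1 degrader.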

[2] = biological target: T2, HiBit-BRG1 (Homo sapiens, UniProt P51532); assay: HiBit-BRG1 cell-based degradation assay (Nano-Glo HiBiT Lytic Detection); details: HeLa cells expressing HiBit-BRG1 and LgBit, 24 h; for DC50: read-out: BRG1 HiBit Degradation IC50; for Dmax: read-out: BRG1 HiBit Degradation Maximum (%)
T2 construct: expressed in transfected cells
T2 sequence (P51532 whole entry): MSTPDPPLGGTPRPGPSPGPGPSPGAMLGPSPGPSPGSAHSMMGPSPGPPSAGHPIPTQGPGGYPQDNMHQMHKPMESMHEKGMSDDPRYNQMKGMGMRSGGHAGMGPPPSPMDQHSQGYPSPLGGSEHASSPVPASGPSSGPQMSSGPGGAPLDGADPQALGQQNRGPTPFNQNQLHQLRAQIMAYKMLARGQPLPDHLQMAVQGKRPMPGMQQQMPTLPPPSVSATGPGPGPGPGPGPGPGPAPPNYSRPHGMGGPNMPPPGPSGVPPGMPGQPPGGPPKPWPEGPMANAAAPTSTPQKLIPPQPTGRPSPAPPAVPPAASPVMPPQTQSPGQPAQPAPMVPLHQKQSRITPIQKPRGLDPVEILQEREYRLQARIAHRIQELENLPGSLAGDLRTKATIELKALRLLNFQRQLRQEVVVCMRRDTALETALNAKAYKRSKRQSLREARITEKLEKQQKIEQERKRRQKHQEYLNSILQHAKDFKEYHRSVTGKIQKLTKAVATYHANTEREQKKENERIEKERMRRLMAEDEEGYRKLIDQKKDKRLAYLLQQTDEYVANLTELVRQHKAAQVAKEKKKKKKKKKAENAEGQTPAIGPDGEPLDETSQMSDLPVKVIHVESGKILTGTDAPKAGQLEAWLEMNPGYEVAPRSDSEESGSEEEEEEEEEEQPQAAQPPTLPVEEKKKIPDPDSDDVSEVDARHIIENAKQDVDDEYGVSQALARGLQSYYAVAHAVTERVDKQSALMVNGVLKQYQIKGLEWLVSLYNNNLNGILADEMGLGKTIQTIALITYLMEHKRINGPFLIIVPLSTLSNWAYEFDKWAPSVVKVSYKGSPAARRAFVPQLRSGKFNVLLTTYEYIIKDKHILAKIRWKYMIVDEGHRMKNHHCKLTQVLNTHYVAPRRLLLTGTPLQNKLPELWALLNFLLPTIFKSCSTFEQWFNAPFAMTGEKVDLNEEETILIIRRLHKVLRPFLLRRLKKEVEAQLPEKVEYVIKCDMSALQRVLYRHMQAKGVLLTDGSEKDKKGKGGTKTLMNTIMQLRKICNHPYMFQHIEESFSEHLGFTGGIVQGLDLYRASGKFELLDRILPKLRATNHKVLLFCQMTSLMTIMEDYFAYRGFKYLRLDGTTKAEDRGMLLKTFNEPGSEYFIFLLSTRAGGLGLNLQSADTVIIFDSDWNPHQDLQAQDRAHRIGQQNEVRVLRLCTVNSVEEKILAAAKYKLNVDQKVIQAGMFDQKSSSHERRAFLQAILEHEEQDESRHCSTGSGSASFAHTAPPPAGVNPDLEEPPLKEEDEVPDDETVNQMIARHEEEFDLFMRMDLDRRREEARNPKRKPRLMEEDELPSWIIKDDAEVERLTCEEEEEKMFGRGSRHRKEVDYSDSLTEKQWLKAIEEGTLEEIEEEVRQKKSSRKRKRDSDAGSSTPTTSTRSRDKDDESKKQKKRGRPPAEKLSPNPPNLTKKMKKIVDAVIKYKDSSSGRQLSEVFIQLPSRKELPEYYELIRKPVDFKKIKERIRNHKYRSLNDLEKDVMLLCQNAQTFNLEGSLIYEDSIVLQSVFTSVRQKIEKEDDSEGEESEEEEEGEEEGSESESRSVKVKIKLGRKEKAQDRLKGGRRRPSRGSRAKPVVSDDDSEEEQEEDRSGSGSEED
How it was run: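 Stable HeLa line co-expressing HiBit-BRG1 and LgBit, 5000 cells/well, treated 24 h in a tissue culture incubator. Lysed with Nano-Glo HiBiT lytic reagent, luminescence read. % degradation normalized to DMSO (high control) and 2 μM reference BRM/BRG1 degrader (low control).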

T1 sequence (P51531 whole entry): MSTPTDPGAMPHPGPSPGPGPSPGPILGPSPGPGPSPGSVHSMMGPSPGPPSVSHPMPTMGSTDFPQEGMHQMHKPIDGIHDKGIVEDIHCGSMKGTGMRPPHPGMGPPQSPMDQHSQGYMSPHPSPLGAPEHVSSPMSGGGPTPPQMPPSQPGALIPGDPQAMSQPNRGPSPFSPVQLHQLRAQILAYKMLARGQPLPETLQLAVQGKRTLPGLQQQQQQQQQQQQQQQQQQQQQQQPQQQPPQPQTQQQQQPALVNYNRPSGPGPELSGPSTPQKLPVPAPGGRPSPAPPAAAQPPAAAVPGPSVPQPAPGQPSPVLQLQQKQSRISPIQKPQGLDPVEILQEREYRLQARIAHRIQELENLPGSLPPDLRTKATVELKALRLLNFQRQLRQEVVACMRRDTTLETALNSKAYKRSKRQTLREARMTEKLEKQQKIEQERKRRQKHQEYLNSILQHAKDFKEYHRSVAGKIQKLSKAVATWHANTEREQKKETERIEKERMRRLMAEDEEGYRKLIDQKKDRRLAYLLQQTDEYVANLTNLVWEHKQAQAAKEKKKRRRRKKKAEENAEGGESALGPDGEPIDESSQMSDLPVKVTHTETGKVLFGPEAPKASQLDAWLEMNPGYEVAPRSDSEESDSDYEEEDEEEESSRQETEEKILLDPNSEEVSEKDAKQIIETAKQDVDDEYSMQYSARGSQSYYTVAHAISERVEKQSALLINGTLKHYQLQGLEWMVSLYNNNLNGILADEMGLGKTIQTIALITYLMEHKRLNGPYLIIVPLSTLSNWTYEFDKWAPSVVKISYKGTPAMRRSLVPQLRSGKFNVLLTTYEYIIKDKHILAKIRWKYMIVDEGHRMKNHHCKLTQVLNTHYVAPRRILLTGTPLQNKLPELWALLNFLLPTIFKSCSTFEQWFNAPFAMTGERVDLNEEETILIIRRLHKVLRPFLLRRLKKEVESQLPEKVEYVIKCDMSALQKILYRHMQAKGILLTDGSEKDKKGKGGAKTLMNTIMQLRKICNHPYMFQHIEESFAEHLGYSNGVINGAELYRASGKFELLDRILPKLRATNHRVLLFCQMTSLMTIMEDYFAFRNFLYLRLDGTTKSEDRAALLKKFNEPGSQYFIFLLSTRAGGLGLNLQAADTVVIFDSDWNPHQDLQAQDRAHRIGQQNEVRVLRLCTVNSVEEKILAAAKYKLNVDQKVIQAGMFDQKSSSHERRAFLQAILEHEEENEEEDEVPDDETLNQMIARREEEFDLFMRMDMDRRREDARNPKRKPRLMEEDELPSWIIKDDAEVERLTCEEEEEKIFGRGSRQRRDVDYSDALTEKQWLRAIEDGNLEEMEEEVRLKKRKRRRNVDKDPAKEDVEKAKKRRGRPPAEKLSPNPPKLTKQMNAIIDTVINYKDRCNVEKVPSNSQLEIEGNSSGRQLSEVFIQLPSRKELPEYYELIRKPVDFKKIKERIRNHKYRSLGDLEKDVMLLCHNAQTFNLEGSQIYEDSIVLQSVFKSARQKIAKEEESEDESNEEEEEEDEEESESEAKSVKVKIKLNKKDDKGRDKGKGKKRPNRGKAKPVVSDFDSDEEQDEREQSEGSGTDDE

| SMILES | DC50 [1] [nM] | DC50 [2] [nM] | Dmax [2] [%] | BRM HiBit Degradation Maximum (%) [1] |
| --- | --- | --- | --- | --- |
| Nc1nnc(-c2ccccc2O)cc1N1CCN(CC(=O)N2CC(COc3cccc4c3C(=O)N(C3CCC(=O)NC3=O)C4=O)C2)CC1 (stereo not drawn) [Compound 76, 4-[[1-(2-[4-[3-amino-6-(2-hydroxyphenyl)pyridazin-4-yl]piperazin-1-yl]acetyl)azetidin-3-yl]methoxy]-2-(2,6-dioxopiperidin-3-yl)isoindole-1,3-dione] | > 1000 | > 1000 | < 50 | C (“C” indicates maximum degradation <50%) |
| Cc1ncsc1-c1ccc([C@H](C)NC(=O)[C@@H]2C[C@@H](O)CN2C(=O)[C@@H](c2cc(OCCN3C[C@H]4CC[C@@H](C3)N4C(=O)c3ccc(CCOc4cc(-c5ccccc5O)nnc4N)cc3)no2)C(C)C)cc1 [Compound 220, (2S,4R)-1-((2R)-2-(3-(2-(8-(4-(2-((3-amino-6-(2-hydroxyphenyl)pyridazin-4-yl)oxy)ethyl)benzoyl)-3,8-diazabicyclo[3.2.1]octan-3-yl)ethoxy)isoxazol-5-yl)-3-methylbutanoyl)-4-hydroxy-N-((S)-1-(4-(4-methylthiazol-5-yl)phenyl)ethyl)pyrrolidine-2-carboxamide] | < 10 | > 10 | > 75 | A (“A” indicates maximum degradation ≥75%) |
| Nc1nnc(-c2ccccc2O)cc1OCCc1ccc(C(=O)NCCCCCCCCNC(=O)COc2cccc3c2C(=O)N(C2CCC(=O)NC2=O)C3=O)cc1 (stereo not drawn) [Compound 41, N-(8-[[4-(2-[[3-amino-6-(2-hydroxyphenyl)pyridazin-4-yl]oxy]ethyl)phenyl]formamido]octyl)-2-[[2-(2,6-dioxopiperidin-3-yl)-1,3-dioxoisoindol-4-yl]oxy]acetamide] | > 1000 | > 1000 | < 50 | C (“C” indicates maximum degradation <50%) |
| CN(CCCCCNc1ccc2c(c1)C(=O)N(C1CCC(=O)NC1=O)C2=O)Cc1ccc(CCOc2cc(-c3ccccc3O)nnc2N)cc1 (stereo not drawn) [Compound 151, 5-[[5-([[4-(2-[[3-amino-6-(2-hydroxyphenyl)pyridazin-4-yl]oxy]ethyl)phenyl]methyl](methyl)amino)pentyl]amino]-2-(2,6-dioxopiperidin-3-yl)isoindole-1,3-dione] | > 1000 | > 1000 | > 50 | C (“C” indicates maximum degradation <50%) |
| Cc1ncsc1-c1ccc([C@H](C)NC(=O)[C@@H]2C[C@@H](O)CN2C(=O)[C@@H](NC(=O)CCNCCCCCCCCCCC(=O)NCc2ccc(CCOc3cc(-c4ccccc4O)nnc3N)cc2)C(C)(C)C)cc1 [Compound 256, (2S,4R)-1-((S)-2-(3-((11-((4-(2-((3-amino-6-(2-hydroxyphenyl)pyridazin-4-yl)oxy)ethyl)benzyl)amino)-11-oxoundecyl)amino)propanamido)-3,3-dimethylbutanoyl)-4-hydroxy-N-((S)-1-(4-(4-methylthiazol-5-yl)phenyl)ethyl)pyrrolidine-2-carboxamide] | > 1000 | > 1000 | < 50 | C (“C” indicates maximum degradation <50%) |
| Cc1ncsc1-c1ccc(CNC(=O)[C@@H]2C[C@@H](O)CN2C(=O)[C@@H](NC(=O)CCCN2CCN(CCOc3cc(N4[C@@H]5CC[C@H]4CN(c4cc(-c6ccccc6O)nnc4N)C5)ccn3)CC2)C(C)(C)C)cc1 [Compound 242, (2S,4R)-1-((2S)-2-(4-(4-(2-((4-(3-(3-amino-6-(2-hydroxyphenyl)pyridazin-4-yl)-3,8-diazabicyclo[3.2.1]octan-8-yl)pyridin-2-yl)oxy)ethyl)piperazin-1-yl)butanamido)-3,3-dimethylbutanoyl)-4-hydroxy-N-(4-(4-methylthiazol-5-yl)benzyl)pyrrolidine-2-carboxamide] | > 100 | > 1000 | < 50 | A (“A” indicates maximum degradation ≥75%) |
| Nc1nnc(-c2ccccc2O)cc1OCCc1ccc(CNC(=O)CCCCNc2ccc3c(c2)C(=O)N(C2CCC(=O)NC2=O)C3)cc1 (stereo not drawn) [Compound 135, N-[[4-(2-[[3-amino-6-(2-hydroxyphenyl)pyridazin-4-yl]oxy]ethyl)phenyl]methyl]-5-[[2-(2,6-dioxopiperidin-3-yl)-3-oxo-1H-isoindol-5-yl]amino]pentanamide] | > 1000 | > 1000 | < 50 | C (“C” indicates maximum degradation <50%) |

Now from value to molecule, other results behind:

| DC50 [1] [nM] | DC50 [2] [nM] | Dmax [2] [%] | SMILES | BRM HiBit Degradation Maximum (%) [1] |
| --- | --- | --- | --- | --- |
| > 1000 | > 1000 | < 50 | Cc1ncsc1-c1ccc(CNC(=O)[C@@H]2C[C@@H](O)CN2C(=O)[C@@H](NC(=O)CCN2CCN(CC(=O)NCc3ccc(CCOc4cc(-c5ccccc5O)nnc4N)cc3)CC2)C(C)(C)C)cc1 [Compound 179, (2S,4R)-1-[(2S)-2-(3-[4-[([[4-(2-[[3-amino-6-(2-hydroxyphenyl)pyridazin-4-yl]oxy]ethyl)phenyl]methyl]carbamoyl)methyl]piperazin-1-yl]propanamido)-3,3-dimethylbutanoyl]-4-hydroxy-N-[[4-(4-methyl-1,3-thiazol-5-yl)phenyl]methyl]pyrrolidine-2-carboxamide] | C (“C” indicates maximum degradation <50%) |
| > 1000 | > 1000 | < 50 | Cc1ncsc1-c1ccc([C@H](C)NC(=O)[C@@H]2C[C@@H](O)CN2C(=O)[C@@H](NC(=O)CCN2CCC3(CCN(CCC(=O)NCc4ccc(CCOc5cc(-c6ccccc6O)nnc5N)cc4)CC3)CC2)C(C)(C)C)cc1 [Compound 250, (2S,4R)-1-((S)-2-(3-(9-(3-((4-(2-((3-amino-6-(2-hydroxyphenyl)pyridazin-4-yl)oxy)ethyl)benzyl)amino)-3-oxopropyl)-3,9-diazaspiro[5.5]undecan-3-yl)propanamido)-3,3-dimethylbutanoyl)-4-hydroxy-N-((S)-1-(4-(4-methylthiazol-5-yl)phenyl)ethyl)pyrrolidine-2-carboxamide] | B (“B” indicates maximum degradation ≥50%) |
| > 1000 | > 1000 | < 50 | Nc1nnc(-c2ccccc2O)cc1OCCc1ccc(C(=O)NCCCCCCCCNc2ccc3c(c2)C(=O)N(C2CCC(=O)NC2=O)C3=O)cc1 (stereo not drawn) [Compound 64, 4-(2-[[3-amino-6-(2-hydroxyphenyl)pyridazin-4-yl]oxy]ethyl)-N-(8-[[2-(2,6-dioxopiperidin-3-yl)-1,3-dioxoisoindol-5-yl]amino]octyl)benzamide] | C (“C” indicates maximum degradation <50%) |
| > 10 | < 10 | > 50 | CN(CCCCCNc1cccc2c1C(=O)N(C1CCC(=O)NC1=O)C2=O)Cc1ccc(CCOc2cc(-c3ccccc3O)nnc2N)cc1 (stereo not drawn) [Compound 156, 4-((5-((4-(2-((3-amino-6-(2-hydroxyphenyl)pyridazin-4-yl)oxy)ethyl)benzyl)(methyl)amino)pentyl)amino)-2-(2,6-dioxopiperidin-3-yl)isoindoline-1,3-dione formate] | B (“B” indicates maximum degradation ≥50%) |
| > 10 | > 1000 | < 50 | Cc1ncsc1-c1ccc([C@H](C)NC(=O)[C@@H]2C[C@@H](O)CN2C(=O)[C@@H](NC(=O)CCCCCCCCCCC(=O)NCc2ccc(CCOc3cc(-c4ccccc4O)nnc3N)cc2)C(C)(C)C)cc1 [Compound 247, N1-(4-(2-((3-amino-6-(2-hydroxyphenyl)pyridazin-4-yl)oxy)ethyl)benzyl)-N12-((S)-1-((2S,4R)-4-hydroxy-2-(((S)-1-(4-(4-methylthiazol-5-yl)phenyl)ethyl)carbamoyl)pyrrolidin-1-yl)-3,3-dimethyl-1-oxobutan-2-yl)dodecanediamide] | A (“A” indicates maximum degradation ≥75%) |
| > 10 | > 1000 | > 50 | Cc1ncsc1-c1ccc([C@H](C)NC(=O)[C@@H]2C[C@@H](O)CN2C(=O)[C@@H](NC(=O)CCCCCCCCCCCCCCNCc2ccc(CCOc3cc(-c4ccccc4O)nnc3N)cc2)C(C)(C)C)cc1 [Compound 261, (2S,4R)-1-((S)-2-(15-((4-(2-((3-amino-6-(2-hydroxyphenyl)pyridazin-4-yl)oxy)ethyl)benzyl)amino)pentadecanamido)-3,3-dimethylbutanoyl)-4-hydroxy-N-((S)-1-(4-(4-methylthiazol-5-yl)phenyl)ethyl)pyrrolidine-2-carboxamide] | A (“A” indicates maximum degradation ≥75%) |
| > 100 | > 1000 | < 50 | Cc1ncsc1-c1ccc(CNC(=O)[C@@H]2C[C@@H](O)CN2C(=O)[C@@H](NC(=O)CCCCCCCCCNC(=O)c2ccc(CCOc3cc(-c4ccccc4O)nnc3N)cc2)C(C)(C)C)cc1 [Compound 47, (2S,4R)-1-[(2S)-2-(10-[[4-(2-[[3-amino-6-(2-hydroxyphenyl)pyridazin-4-yl]oxy]ethyl)phenyl]formamido]decanamido)-3,3-dimethylbutanoyl]-4-hydroxy-N-[[4-(4-methyl-1,3-thiazol-5-yl)phenyl]methyl]pyrrolidine-2-carboxamide] | B (“B” indicates maximum degradation ≥50%) |
| > 100 | > 100 | > 50 | Nc1nnc(-c2ccccc2O)cc1OCCc1ccc(C(=O)NCCN2CCN(c3cccc4c3C(=O)N(C3CCC(=O)NC3=O)C4=O)CC2)cc1 (stereo not drawn) [Compound 149, 4-(2-((3-amino-6-(2-hydroxyphenyl)pyridazin-4-yl)oxy)ethyl)-N-(2-(4-(2-(2,6-dioxopiperidin-3-yl)-1,3-dioxoisoindolin-4-yl)piperazin-1-yl)ethyl)benzamide] | A (“A” indicates maximum degradation ≥75%) |

Reference: patent US20230150974A1 (Foghorn Therapeutics Inc., priority 2020, published 2023)
